Structures are written as SMILES. Where only a bound is given, the exact number is not on record here.

Experiment [1] relates to human prostate cancer LD1-0034-361929 subcutaneous xenograft tumor model. Kind of experiment: In-vivo pharmacodynamic study on human castration resistant prostate cancer PDX subcutaneous tumor model. More on the design: species or system male Nu/Nu nude mice. To be noted: abiraterone-resistant CRPC PDX in nude mice, oral intragastric Qd, 39 days, compound 29 15 mg/kg, abiraterone 200 mg/kg; for TGI (%): TGI=1−T/C. The protocol: Test sample: compound 29 of the present invention, the structure of which is shown above, and which was prepared as described in the detailed description of WO2018108079A1. Abiraterone was obtained from commercially available sources.
Animals, information on the patient from whom the tumor masses were derived, and other materials: human prostate cancer tumor sample LD1-0034-361929, derived from a patient resistant to abiraterone; clinical diagnosis: castration resistant prostate cancer with bladder metastatic lesions, pathological diagnosis: prostate cancer-poorly differentiated adenocarcinoma; • male Nu/Nu nude mice, aged 6-8 weeks.
The tumor masses were inoculated into the right back of mice, and the animals were weighed before administration. Tumor volumes were measured, and grouping was designed in blocks according to the tumor volumes.
Administration was carried out as in the table below.
The animals were monitored daily for health status and mortality, body weight and tumor volume were measured twice a week, and samples were collected after the last administration. The therapeutic effect on tumor volume was evaluated by TGI %, wherein the relative tumor inhibition rate TGI (%): TGI=1−T/C (%). T/C % is the relative tumor proliferation rate, i.e., the percentage of the relative tumor volume in the treatment and control groups at a given time point. T and C are relative tumor volumes (RTVs) of the treatment and control groups at a given time point, respectively. The calculation formula is as follows: T/C %=TRTV/CRTV×100% (TRTV: mean RTV for treatment group; CRTV: mean RTV for vehicle control group; RTV=Vt/V0, wherein V0 is the tumor volume of the animal at the time of grouping, and Vt is the tumor volume of the animal after treatment).

Experiment [2] concerns DU145. Kind of experiment: Prostate cancer cell proliferation assay (Cell titer-Glo, 72 h), DU145. Type of experiment: cell-based. To be noted: Homo sapiens, DU-145, DU145 cells, inhibition of proliferation, read-out: Compound IC50/nM. The procedure: (§1) Prostate cancer cell materials: DU145, PC-3, VCaP, and LNCaP clone FGC.
(§2) Test instrument: PE Envision multimode microplate reader.
(§3) Each cell line was seeded in a 384-well plate for adherent culture overnight, and then compounds at different concentrations (10 dose groups, serial 4-fold dilution with DMSO) were added to give a maximum final concentration of 10000 nM, wherein the final DMSO content was 0.33%, and staurosporine at a final concentration of 10 μM was used as a system positive control ([…] inhibition). Negative control wells contained medium with the same amount of DMSO (0% inhibition). The plate was incubated at 37° C., 5% CO2 and 95% humidity for 72 h for later test. 30 μL of Cell titer-Glo reagent was added to each well, and after the plate was incubated at room temperature for 30 min, the final data were read using the microplate reader.
(§4) The data were calculated as follows:
(§5) Inhibition rate (%)=100%−(compound signal−system positive control signal)/(negative control signal−system positive control signal)[…].
(In general: Cellular ATP, detected with luciferase, serves as a proxy for viable cell number.)

The test system of experiment [3] is PC-3. Kind of experiment: Prostate cancer cell proliferation assay (Cell titer-Glo, 72 h), PC-3. Type of experiment: cell-based. To be noted: Homo sapiens, PC-3 cells, inhibition of proliferation, read-out: Compound IC50/nM. The procedure: as §1, §2, §3, §4, §5
The subject of experiment [4] is VCaP. Kind of experiment: Prostate cancer cell proliferation assay (Cell titer-Glo, 72 h), VCaP. Type of experiment: cell-based. To be noted: Homo sapiens, VCaP cells, inhibition of proliferation, read-out: Compound IC50/nM. The protocol:
as §1, §2, §3, §4, §5

Experiment [5] deals with LNCaP clone FGC. Kind of experiment: Prostate cancer cell proliferation assay (Cell titer-Glo, 72 h), LNCaP clone FGC. Type of experiment: cell-based. To be noted: Homo sapiens, LNCaP clone FGC cells, inhibition of proliferation, read-out: Compound IC50/nM. The protocol:
as §1, §2, §3, §4, §5

The subject of experiment [6] is metastatic castration resistant prostate cancer. Nature of the experiment: Clinical study in patients with metastatic castration resistant prostate cancer. It is filed as in vivo, human. The following applies: among 11 mCRPC patients with response evaluation data (10 at 12 mg, 1 at 10 mg), oral once daily, 28-day cycles. The protocol: Test medicament: compound 29, the structure of which is shown above, and which was prepared as described in the detailed description of WO2018108079A1.
Inclusion criteria: patients with histopathologically or cytologically confirmed metastatic castration resistant prostate cancer for which no standard therapy is available.
Dosing regimen: compound 29 was administered orally at a prescribed dose (such as 8 mg, 10 mg, or 12 mg) once daily, with 28 consecutive days of administration being one cycle.
Response evaluation: among the 11 patients with response evaluation data (10 patients received a single dose of 12 mg, and 1 patient received a single dose of 10 mg), 7 patients achieved partial response (PR), and 2 patients reported stable disease (SD).

Consider `C[C@]12CC[C@H](O)CC1=CC[C@@H]1[C@@H]2CC[C@]2(C)C(c3cccnc3)=CC[C@@H]12` [Abiraterone, reference compound], for which, in experiment [1], the “Tumor volume (mm^3)” value was 1549.43 ± 533.15 mm^3 and the “TGI (%)” value is listed as −8.97%.
On to `Cc1[nH]nc2c1N=C(c1ccccc1Cl)c1cnc(N3CCOCC3)cc1N2` [Compound 29], for which the IC50 in experiment [2] is less than 1000 nM; in experiment [3], less than 1000 nM; in experiment [4] it was less than 1000 nM; in experiment [5], 1000 to 10000 nM. The “Tumor volume (mm^3)” value in experiment [1] was 622.23 ± 247.3 mm^3. Also, the “TGI (%)” value in experiment [1] amounted to 58.07%. For the same compound, the “patients achieved partial response (PR)” value in experiment [6] is 7 patients.

The values are drawn from patent US20250032504A1, “NOVEL APPLICATION OF KINASE INHIBITOR” (TRANSTHERA SCIENCES (NANJING), INC., priority 2021, published 2025).
